Columns and labels:
[1] = system: Aβ1-42-reactive T-cell lines; assay: Epitope mapping / proliferation of Aβ1-42-reactive T-cell lines; format: cell-based, human; settings: lines from 24 subjects; fine mapping with 15 amino acid overlapping peptides
Method: Epitope specificity of these 3 T-cell lines using 5 overlapping peptides within Aβ15-42 was further investigated.
(§1) T-cell lines were then supplemented with 10 μg/ml IL-2 after 48 hours and every 2 days thereafter until they were completely resting. T-cell proliferation was measured 72 hours after stimulation following a 12 hr incubation with [^3H]-thymidine. Supernatants were collected 48 hr after T-cell stimulation, and antigen-induced cytokine production was measured by sandwich ELISA. Recommended pairs of antibodies (coating and detecting) for IL-10 (R&D, Minneapolis, Minn.), INF-γ. Endogen, Woburn, Mass.), IL-13 (PharMingen, (San Diego, Calif.), and TGF-β (Promega, Madison, Wis.) were used according to the manufacturer's instructions. Surface and intracellular staining was performed on Aβ-reactive T-cells after stimulation. All antibodies were purchased from BD Biosciences (San Diego, Calif.) and staining was performed according to the manufacturer's instructions.

Aβ-reactive T-cell lines = assay: Cytokine secretion of Aβ-reactive T-cell lines (sandwich ELISA); format: cell-based, human; settings: 48 hr after stimulation, T-cell lines 1, 2, 3
Method: as §1

Aβ16-30-specific T cells = assay: Proliferation of Aβ16-30-specific T cells with alanine/glycine-substituted peptides; format: cell-based, human; settings: for T-cell proliferation, average cpm: 72 hr
From the text: Because the T-cell epitopes were most frequently localized to Aβ16-30, we further mapped this epitope for each of its constituent amino acids by using alanine-substituted peptides in the T-cell proliferation assay (the naturally occurring alanines at positions 21 and 30 were changed to glycines). […] Substitution of lysine-16, alanine-21, serine-26 or aspargine-27 increased T-cell proliferation by more than 2-fold (Table 4).
In this experiment, T cells specific to Aβ16-30 were stimulated in the presence of alanine/glycine substituted peptides and autologous PBMCs. T-cell proliferation was measured by [^3H]-thymidine incorporation 72 hr after stimulation. Numbers represent average cpm of each antigen concentration tested (average cpm in the absence of antigen was 911).
as §1

[2] = system: popliteal draining lymph nodes (PLN) T cells; assay: Lymph node T-cell proliferation after immunization of mice with Aβ in CFA; format: cell-based, mouse; settings: SJL-derived lymphocyte cultures, immunized with human Aβ1-42

Aβ1-28: overlapping N-terminal fragment of Aβ1-42, residues 1-28
Distribution of Aβ T-cell epitopes: Number of T-cell lines [1]: 2
Distribution of Aβ T-cell epitopes: percent [1]: 8%
IFN-γ secretion (Aβ-reactive T-cell lines): not IFN-γ
IL-13 secretion (Aβ-reactive T-cell lines): high levels

Leu 17 Ala: Aβ16-30 peptide with Leu 17 substituted by alanine (KAVFFAEDVGSNKGA; Amyloid-beta protein 42; UniProt P05067 687-701, looked up, variant L17A)
T-cell proliferation, average cpm (Aβ16-30-specific T cells; Peptide 0.1 μg/ml): 2242 cpm
T-cell proliferation, average cpm (Aβ16-30-specific T cells; Peptide 1 μg/ml): 11805 cpm
T-cell proliferation, average cpm (Aβ16-30-specific T cells; Peptide 10 μg/ml): 24480 cpm

Aβ13-27: nested Aβ peptide, residues 13-27 (HHQKLVFFAEDVGSN; Amyloid-beta protein 42; UniProt P05067 684-698, looked up, fragment)
T-cell proliferation with overlapping peptides [2]: induced T-cell proliferation

Glu 22 Ala: Aβ16-30 peptide with glutamic acid-22 substituted by alanine (KLVFFAADVGSNKGA; Amyloid-beta protein 42; UniProt P05067 687-701, looked up, variant E22A)
T-cell proliferation, average cpm (Aβ16-30-specific T cells; Peptide 0.1 μg/ml): 1145 cpm
T-cell proliferation, average cpm (Aβ16-30-specific T cells; Peptide 1 μg/ml): 840 cpm
T-cell proliferation, average cpm (Aβ16-30-specific T cells; Peptide 10 μg/ml): 517 cpm
effect of substitution on T-cell proliferation (Aβ16-30-specific T cells; at all 3 concentrations used): blocked or significantly decreased

Asp 23 Ala: Aβ16-30 peptide with aspartic acid-23 substituted by alanine (KLVFFAEAVGSNKGA; Amyloid-beta protein 42; UniProt P05067 687-701, looked up, variant D23A)
T-cell proliferation, average cpm (Aβ16-30-specific T cells; Peptide 0.1 μg/ml): 1145 cpm
T-cell proliferation, average cpm (Aβ16-30-specific T cells; Peptide 1 μg/ml): 1685 cpm
T-cell proliferation, average cpm (Aβ16-30-specific T cells; Peptide 10 μg/ml): 612 cpm
effect of substitution on T-cell proliferation (Aβ16-30-specific T cells; at all 3 concentrations used): blocked or significantly decreased

Ala 21 Gly: Aβ16-30 peptide with alanine 21 changed to glycine (KLVFFGEDVGSNKGA; Amyloid-beta protein 42; UniProt P05067 687-701, looked up, variant A21G)
T-cell proliferation, average cpm (Aβ16-30-specific T cells; Peptide 0.1 μg/ml): 12901 cpm
T-cell proliferation, average cpm (Aβ16-30-specific T cells; Peptide 1 μg/ml): 29634 cpm
T-cell proliferation, average cpm (Aβ16-30-specific T cells; Peptide 10 μg/ml): 36448 cpm

Lys 28 Ala: Aβ16-30 peptide with Lys 28 substituted by alanine (KLVFFAEDVGSNAGA; Amyloid-beta protein 42; UniProt P05067 687-701, looked up, variant K28A)
T-cell proliferation, average cpm (Aβ16-30-specific T cells; Peptide 0.1 μg/ml): 5050 cpm
T-cell proliferation, average cpm (Aβ16-30-specific T cells; Peptide 1 μg/ml): 15475 cpm
T-cell proliferation, average cpm (Aβ16-30-specific T cells; Peptide 10 μg/ml): 29156 cpm

Gly 25 Ala: Aβ16-30 peptide with Gly 25 substituted by alanine (KLVFFAEDVASNKGA; Amyloid-beta protein 42; UniProt P05067 687-701, looked up, variant G25A)
T-cell proliferation, average cpm (Aβ16-30-specific T cells; Peptide 0.1 μg/ml): 2426 cpm
T-cell proliferation, average cpm (Aβ16-30-specific T cells; Peptide 1 μg/ml): 13763 cpm
T-cell proliferation, average cpm (Aβ16-30-specific T cells; Peptide 10 μg/ml): 24979 cpm

Ser 26 Ala: Aβ16-30 peptide with serine-26 substituted by alanine (KLVFFAEDVGANKGA; Amyloid-beta protein 42; UniProt P05067 687-701, looked up, variant S26A)
T-cell proliferation, average cpm (Aβ16-30-specific T cells; Peptide 0.1 μg/ml): 18808 cpm
T-cell proliferation, average cpm (Aβ16-30-specific T cells; Peptide 1 μg/ml): 36287 cpm
T-cell proliferation, average cpm (Aβ16-30-specific T cells; Peptide 10 μg/ml): 38335 cpm

Aβ28-42: nested Aβ peptide, residues 28-42 (KGAIIGLMVGGVVIA; Amyloid-beta protein 42; UniProt P05067 699-713, looked up, fragment)
Distribution of Aβ T-cell epitopes: Number of T-cell lines [1]: 5
Distribution of Aβ T-cell epitopes: percent [1]: 20%

Gly 29 Ala: Aβ16-30 peptide with glycine-29 substituted by alanine (KLVFFAEDVGSNKAA; Amyloid-beta protein 42; UniProt P05067 687-701, looked up, variant G29A)
T-cell proliferation, average cpm (Aβ16-30-specific T cells; Peptide 0.1 μg/ml): 622 cpm
T-cell proliferation, average cpm (Aβ16-30-specific T cells; Peptide 1 μg/ml): 3014 cpm
T-cell proliferation, average cpm (Aβ16-30-specific T cells; Peptide 10 μg/ml): 14513 cpm
effect of substitution on T-cell proliferation (Aβ16-30-specific T cells; only at 0.1 or 1 μg/ml): inhibitory effects

Val 18 Ala: Aβ16-30 peptide with Val 18 substituted by alanine (KLAFFAEDVGSNKGA; Amyloid-beta protein 42; UniProt P05067 687-701, looked up, variant V18A)
T-cell proliferation, average cpm (Aβ16-30-specific T cells; Peptide 0.1 μg/ml): 7216 cpm
T-cell proliferation, average cpm (Aβ16-30-specific T cells; Peptide 1 μg/ml): 17427 cpm
T-cell proliferation, average cpm (Aβ16-30-specific T cells; Peptide 10 μg/ml): 26814 cpm

From patent publication US20050123553A1, “Amyloid beta-peptide and methods of use” (priority 2003, published 2005)
